The target of the first series is Acetylcholinesterase (Electrophorus electricus, UniProt O42275). Nature of the series: Inhibition of electric eel AChE using acetylthiocholine iodide as substrate incubated for 10 mins by spectrophotometry based Ellman's method.
Chain of Acetylcholinesterase (Electrophorus electricus, UniProt O42275) (O42275 whole entry): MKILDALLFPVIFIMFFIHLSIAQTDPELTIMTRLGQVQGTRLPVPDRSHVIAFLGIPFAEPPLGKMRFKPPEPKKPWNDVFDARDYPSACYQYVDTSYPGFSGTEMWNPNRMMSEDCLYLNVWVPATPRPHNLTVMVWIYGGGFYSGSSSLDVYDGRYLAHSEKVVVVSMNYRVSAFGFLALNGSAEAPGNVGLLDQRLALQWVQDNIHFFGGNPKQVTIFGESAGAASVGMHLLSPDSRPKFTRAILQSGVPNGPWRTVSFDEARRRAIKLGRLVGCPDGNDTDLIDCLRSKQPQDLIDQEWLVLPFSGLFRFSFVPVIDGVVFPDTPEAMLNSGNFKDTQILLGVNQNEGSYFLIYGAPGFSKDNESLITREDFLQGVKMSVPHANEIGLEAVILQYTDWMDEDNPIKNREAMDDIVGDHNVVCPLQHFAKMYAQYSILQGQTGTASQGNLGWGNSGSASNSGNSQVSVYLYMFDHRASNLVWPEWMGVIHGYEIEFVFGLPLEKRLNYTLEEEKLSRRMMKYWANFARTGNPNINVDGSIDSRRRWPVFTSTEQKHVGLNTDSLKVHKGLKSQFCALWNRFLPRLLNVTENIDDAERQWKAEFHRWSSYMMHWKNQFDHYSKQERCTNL
Details: not given
Background: Ellman's reagent forms a yellow product with free thiols.
Chain of Cholinesterase (P06276 whole entry): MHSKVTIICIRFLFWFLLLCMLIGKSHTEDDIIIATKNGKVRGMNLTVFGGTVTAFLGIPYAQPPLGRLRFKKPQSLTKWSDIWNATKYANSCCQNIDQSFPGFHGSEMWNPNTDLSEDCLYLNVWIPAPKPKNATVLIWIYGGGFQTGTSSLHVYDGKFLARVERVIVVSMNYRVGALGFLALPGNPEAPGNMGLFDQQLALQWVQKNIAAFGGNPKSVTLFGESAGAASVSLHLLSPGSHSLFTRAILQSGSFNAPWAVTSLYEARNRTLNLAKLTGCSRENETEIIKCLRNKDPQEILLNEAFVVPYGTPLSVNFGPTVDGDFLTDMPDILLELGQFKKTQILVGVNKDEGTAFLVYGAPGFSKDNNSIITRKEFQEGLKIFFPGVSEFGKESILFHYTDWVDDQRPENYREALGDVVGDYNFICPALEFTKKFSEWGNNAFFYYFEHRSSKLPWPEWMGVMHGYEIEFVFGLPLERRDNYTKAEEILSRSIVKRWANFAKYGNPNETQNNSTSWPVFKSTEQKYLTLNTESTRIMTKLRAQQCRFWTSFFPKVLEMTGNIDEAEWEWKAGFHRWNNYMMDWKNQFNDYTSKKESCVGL
Take `S=C(NNc1c2c(nc3ccccc13)CCCC2)Nc1ccc(Br)cc1`: 0.861 µM corresponded to half-maximal inhibition (IC50).
Take `NS(=O)(=O)c1ccc(NC(=S)NNc2c3c(nc4ccccc24)CCCC3)cc1`: half-maximal inhibition (IC50) required 0.792 µM.
Same read-out and setting: with `C#CCOc1ccc(/C=N/Nc2c3c(nc4ccccc24)CCCC3)cc1` the figure was 0.438 µM; with `Cl.O=C(O)c1ccc(-n2cc(COc3ccc(/C=N/Nc4c5c(nc6ccccc46)CCCC5)cc3)nn2)cc1`, 1.32 µM.
Still for that read-out and setting: with `C(=N\Nc1c2c(nc3ccccc13)CCCC2)/c1ccc(OCc2cn(Cc3ccccc3)nn2)cc1` the figure was 0.547 µM; with `COc1ccc(NC(=S)NNc2c3c(nc4ccccc24)CCCC3)cc1`, 0.91 µM.
For the compound `Cl.Clc1ccc(-n2cc(COc3ccc(/C=N/Nc4c5c(nc6ccccc46)CCCC5)cc3)nn2)cc1`, the concentration for half-maximal inhibition (IC50) (as a rule, the concentration at which inhibition is half-maximal) was 4.38 µM.
On the same count and under the same terms, the value for `O=[N+]([O-])c1ccc(-n2cc(COc3ccc(/C=N/Nc4c5c(nc6ccccc46)CCCC5)cc3)nn2)cc1` was 0.535 µM.

Tested on in the next series: not listed separately
The series is described as follows: in vitro. Particulars: human, HepG2 cells.
Description: Cytotoxicity against human HepG2 cell assessed as safe dose that maintains 100% cell viability incubated for 72 hrs by MTT assay
In turn, `S=C(NNc1c2c(nc3ccccc13)CCCC2)Nc1ccc(Br)cc1` gave an MNTC at 72 h of 2.96 µM.
Still for that read-out and setting: the value for `NS(=O)(=O)c1ccc(NC(=S)NNc2c3c(nc4ccccc24)CCCC3)cc1` was 1.19 µM; that for `C#CCOc1ccc(/C=N/Nc2c3c(nc4ccccc24)CCCC3)cc1` was 2.73 µM.
Still for that read-out and setting: the value for `Cl.O=C(O)c1ccc(-n2cc(COc3ccc(/C=N/Nc4c5c(nc6ccccc46)CCCC5)cc3)nn2)cc1` was 43.1 µM.
In turn, `C(=N\Nc1c2c(nc3ccccc13)CCCC2)/c1ccc(OCc2cn(Cc3ccccc3)nn2)cc1` registered an MNTC at 72 h of 1.2 µM.
`COc1ccc(NC(=S)NNc2c3c(nc4ccccc24)CCCC3)cc1` displayed an MNTC at 72 h of 3.33 µM.
The same measure, in the same setting: with `Cl.Clc1ccc(-n2cc(COc3ccc(/C=N/Nc4c5c(nc6ccccc46)CCCC5)cc3)nn2)cc1` the figure was 70 µM.
The same measure, in the same setting: with `O=[N+]([O-])c1ccc(-n2cc(COc3ccc(/C=N/Nc4c5c(nc6ccccc46)CCCC5)cc3)nn2)cc1` the figure was 7.7 µM.

A further series relates to PC-12. The series is described as follows: Anti-inflammatory activity in lipopolysaccharide challenged rat PC12 cells assessed as decrease in TNFalpha production at 100 uM pre-incubated for 24 hrs before LPS challenge for 48 hrs by immunoblot analysis.
Details: not given
The class given is functional.
`Cl.Clc1ccc(-n2cc(COc3ccc(/C=N/Nc4c5c(nc6ccccc46)CCCC5)cc3)nn2)cc1`: the inhibition (commonly the change of the read-out against control, counted positive when it falls) at 100 µM is greater than 60%.

The target in the next series is Acetylcholinesterase (Homo sapiens, UniProt P22303). Nature of the series: Inhibition of recombinant human AChE using acetylthiocholine iodide as substrate pre-incubated for 20 mins before substrate addition and measured for 180 secs by spectrophotometry based Ellman's method.
Chain of Acetylcholinesterase (Homo sapiens, UniProt P22303) (P22303 whole entry): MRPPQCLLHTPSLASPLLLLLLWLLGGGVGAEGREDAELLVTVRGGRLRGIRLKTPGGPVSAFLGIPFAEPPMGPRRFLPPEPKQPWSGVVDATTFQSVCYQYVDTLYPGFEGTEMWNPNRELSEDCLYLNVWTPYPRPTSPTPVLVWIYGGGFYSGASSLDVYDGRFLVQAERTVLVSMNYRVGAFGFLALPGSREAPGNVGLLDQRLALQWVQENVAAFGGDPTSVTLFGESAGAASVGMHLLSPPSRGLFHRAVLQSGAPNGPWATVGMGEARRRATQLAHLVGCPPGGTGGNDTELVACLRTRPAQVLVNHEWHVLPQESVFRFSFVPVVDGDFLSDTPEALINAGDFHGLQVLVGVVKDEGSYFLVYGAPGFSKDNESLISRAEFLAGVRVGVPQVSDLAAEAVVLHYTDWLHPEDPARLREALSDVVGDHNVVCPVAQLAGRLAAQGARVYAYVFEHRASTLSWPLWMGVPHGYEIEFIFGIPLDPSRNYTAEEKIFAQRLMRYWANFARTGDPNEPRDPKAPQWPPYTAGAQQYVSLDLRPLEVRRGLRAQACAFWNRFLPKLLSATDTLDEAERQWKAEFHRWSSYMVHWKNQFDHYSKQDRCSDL
Details: not given
`S=C(NNc1c2c(nc3ccccc13)CCCC2)Nc1ccc(Br)cc1`: the IC50 amounted to 0.571 µM.
Still for that read-out and setting: the value for `NS(=O)(=O)c1ccc(NC(=S)NNc2c3c(nc4ccccc24)CCCC3)cc1` was 0.961 µM.
As for `C#CCOc1ccc(/C=N/Nc2c3c(nc4ccccc24)CCCC3)cc1`, the half-inhibitory concentration (IC50) came to 2.73 µM.
For `Cl.O=C(O)c1ccc(-n2cc(COc3ccc(/C=N/Nc4c5c(nc6ccccc46)CCCC5)cc3)nn2)cc1`, the concentration for half-maximal inhibition (IC50) stood at 4.03 µM.
On the same count and under the same terms, with `C(=N\Nc1c2c(nc3ccccc13)CCCC2)/c1ccc(OCc2cn(Cc3ccccc3)nn2)cc1` the figure was 1.05 µM.
Same read-out and setting: the value for `COc1ccc(NC(=S)NNc2c3c(nc4ccccc24)CCCC3)cc1` was 0.293 µM; that for `Cl.Clc1ccc(-n2cc(COc3ccc(/C=N/Nc4c5c(nc6ccccc46)CCCC5)cc3)nn2)cc1` was 7.03 µM; that for `O=[N+]([O-])c1ccc(-n2cc(COc3ccc(/C=N/Nc4c5c(nc6ccccc46)CCCC5)cc3)nn2)cc1` was 1.05 µM.

In a further series the test system is HepG2. Nature of the series: cells. The note with it: Homo sapiens, HepG2, 72 h.
Description: Cytotoxicity against human HepG2 cell assessed as reduction in cell viability incubated for 72 hrs by MTT assay
In turn, `S=C(NNc1c2c(nc3ccccc13)CCCC2)Nc1ccc(Br)cc1` came in with a 50% inhibitory concentration (IC50) of 69.5 µM.
Still for that read-out and setting: with `NS(=O)(=O)c1ccc(NC(=S)NNc2c3c(nc4ccccc24)CCCC3)cc1` the figure was 42.3 µM; with `C#CCOc1ccc(/C=N/Nc2c3c(nc4ccccc24)CCCC3)cc1`, 46.1 µM; with `Cl.O=C(O)c1ccc(-n2cc(COc3ccc(/C=N/Nc4c5c(nc6ccccc46)CCCC5)cc3)nn2)cc1`, 97.9 µM.
The compound `C(=N\Nc1c2c(nc3ccccc13)CCCC2)/c1ccc(OCc2cn(Cc3ccccc3)nn2)cc1` returned an IC50 of 33.4 µM.
Regarding `COc1ccc(NC(=S)NNc2c3c(nc4ccccc24)CCCC3)cc1`, the IC50 was found to be 70.7 µM.
On to `Cl.Clc1ccc(-n2cc(COc3ccc(/C=N/Nc4c5c(nc6ccccc46)CCCC5)cc3)nn2)cc1`, for which 178 µM corresponded to half-maximal inhibition (IC50).
`O=[N+]([O-])c1ccc(-n2cc(COc3ccc(/C=N/Nc4c5c(nc6ccccc46)CCCC5)cc3)nn2)cc1`: the IC50 was found to be 53.6 µM.

Tested on in a further series: not listed separately
The series is described as follows: in vitro. Particulars: mouse, mouse neuronal cells.
Description: Toxicity in mouse neuronal cells assessed as safe dose that maintains 100% cell viability incubated for 72 hrs by MTT assay
In the case of `S=C(NNc1c2c(nc3ccccc13)CCCC2)Nc1ccc(Br)cc1`, the MNTC at 72 h stood at 788 nM.
On the same count and under the same terms, with `NS(=O)(=O)c1ccc(NC(=S)NNc2c3c(nc4ccccc24)CCCC3)cc1` the figure was 295 nM.
Still for that read-out and setting: the value for `C#CCOc1ccc(/C=N/Nc2c3c(nc4ccccc24)CCCC3)cc1` was 4810 nM; that for `Cl.O=C(O)c1ccc(-n2cc(COc3ccc(/C=N/Nc4c5c(nc6ccccc46)CCCC5)cc3)nn2)cc1` was 162 nM.
The same measure, in the same setting: the value for `C(=N\Nc1c2c(nc3ccccc13)CCCC2)/c1ccc(OCc2cn(Cc3ccccc3)nn2)cc1` was 2670 nM.
Consider `COc1ccc(NC(=S)NNc2c3c(nc4ccccc24)CCCC3)cc1`, for which the MNTC at 72 h was 1380 nM.
On the same count and under the same terms, the value for `Cl.Clc1ccc(-n2cc(COc3ccc(/C=N/Nc4c5c(nc6ccccc46)CCCC5)cc3)nn2)cc1` was 3580 nM; that for `O=[N+]([O-])c1ccc(-n2cc(COc3ccc(/C=N/Nc4c5c(nc6ccccc46)CCCC5)cc3)nn2)cc1` was 830 nM.

The test system of a further series is PC-12. The series is described as follows: Cytotoxicity against rat PC12 cells assessed as reduction in cell viability up to 300 uM by MTS assay. The series is classed as cell-based.
Details: not given
On to `Cl.Clc1ccc(-n2cc(COc3ccc(/C=N/Nc4c5c(nc6ccccc46)CCCC5)cc3)nn2)cc1`, for which the Activity result is given as “Non-Toxic”.

The subject of another series is PC-12. Nature of the series: Anti-inflammatory activity in lipopolysaccharide challenged rat PC12 cells assessed as decrease in interleukin-1 beta production at 100 uM pre-incubated for 24 hrs before LPS challenge for 48 hrs by immunoblot analysis. The series is classed as functional.
Details: not given
Background: Immunoblotting shows a protein as a band on a membrane.
For `Cl.Clc1ccc(-n2cc(COc3ccc(/C=N/Nc4c5c(nc6ccccc46)CCCC5)cc3)nn2)cc1`, the inhibition at 100 µM was greater than 90%.

Tested on in another series: not listed separately
Nature of the series: in vitro. The note with it: mouse, mouse neuronal cells. The source holds these as a separate data set.
Description: Toxicity in mouse neuronal cells assessed as reduction in cell viability incubated for 72 hrs by MTT assay
`S=C(NNc1c2c(nc3ccccc13)CCCC2)Nc1ccc(Br)cc1` came in with an IC50 at 72 h of 19.7 µM.
For the compound `NS(=O)(=O)c1ccc(NC(=S)NNc2c3c(nc4ccccc24)CCCC3)cc1`, the half-maximal inhibitory concentration (IC50) at 72 h is 3.25 µM.
Same read-out and setting: with `C#CCOc1ccc(/C=N/Nc2c3c(nc4ccccc24)CCCC3)cc1` the figure was 8.79 µM; with `Cl.O=C(O)c1ccc(-n2cc(COc3ccc(/C=N/Nc4c5c(nc6ccccc46)CCCC5)cc3)nn2)cc1`, 3.71 µM.
On the same count and under the same terms, the value for `C(=N\Nc1c2c(nc3ccccc13)CCCC2)/c1ccc(OCc2cn(Cc3ccccc3)nn2)cc1` was 5.71 µM; that for `COc1ccc(NC(=S)NNc2c3c(nc4ccccc24)CCCC3)cc1` was 4.33 µM.
Still for that read-out and setting: the value for `Cl.Clc1ccc(-n2cc(COc3ccc(/C=N/Nc4c5c(nc6ccccc46)CCCC5)cc3)nn2)cc1` was 8.28 µM; that for `O=[N+]([O-])c1ccc(-n2cc(COc3ccc(/C=N/Nc4c5c(nc6ccccc46)CCCC5)cc3)nn2)cc1` was 2.95 µM.

Tested on in another series: not listed separately
Nature of the series: Safety index, ratio of EC100 for test compound to EC100 for tacrine for cytotoxicity against human HepG2 cell assessed as safe dose that maintains 100% cell viability incubated for 72 hrs by MTT assay. The class given is cell-based. The note with it: HepG2 cells.
As to `Cl.O=C(O)c1ccc(-n2cc(COc3ccc(/C=N/Nc4c5c(nc6ccccc46)CCCC5)cc3)nn2)cc1`, the selectivity ratio at 72 h stood at 43.
Same read-out and setting: with `Cl.Clc1ccc(-n2cc(COc3ccc(/C=N/Nc4c5c(nc6ccccc46)CCCC5)cc3)nn2)cc1` the figure was 72.

The next series deals with T1, Prostaglandin G/H synthase 1 (Ovis aries, UniProt P05979).
T1 sequence (P05979 whole entry): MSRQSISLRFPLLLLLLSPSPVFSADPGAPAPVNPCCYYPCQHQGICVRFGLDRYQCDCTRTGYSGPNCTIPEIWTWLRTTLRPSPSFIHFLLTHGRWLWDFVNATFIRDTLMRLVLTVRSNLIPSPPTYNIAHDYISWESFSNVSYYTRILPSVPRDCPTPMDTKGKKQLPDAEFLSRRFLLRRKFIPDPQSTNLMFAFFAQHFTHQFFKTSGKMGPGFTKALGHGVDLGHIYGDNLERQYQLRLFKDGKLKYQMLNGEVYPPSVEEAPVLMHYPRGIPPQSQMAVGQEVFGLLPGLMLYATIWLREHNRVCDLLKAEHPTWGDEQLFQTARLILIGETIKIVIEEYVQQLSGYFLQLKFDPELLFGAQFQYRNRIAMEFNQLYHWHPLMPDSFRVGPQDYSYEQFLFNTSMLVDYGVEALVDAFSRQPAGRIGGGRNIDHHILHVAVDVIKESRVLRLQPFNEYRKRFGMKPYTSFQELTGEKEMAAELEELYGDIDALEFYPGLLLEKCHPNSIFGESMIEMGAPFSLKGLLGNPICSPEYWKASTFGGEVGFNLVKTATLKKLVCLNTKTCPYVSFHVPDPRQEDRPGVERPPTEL
The series is described as follows: Inhibition of ovine COX -1 by colorimetric inhibitor screening assay kit method.
Details: not given
`Cl.Clc1ccc(-n2cc(COc3ccc(/C=N/Nc4c5c(nc6ccccc46)CCCC5)cc3)nn2)cc1` registered an IC50 of 13.4 µM.

The next series has as its target Cholinesterase (Homo sapiens, UniProt P06276). The series is described as follows: Inhibition of human serum BChE using butyrylthiocholine iodide as substrate pre-incubated for 20 mins before substrate addition and measured for 180 secs by spectrophotometry based Ellman's method.
Details: not given
On to `S=C(NNc1c2c(nc3ccccc13)CCCC2)Nc1ccc(Br)cc1`, for which half-maximal inhibition (IC50) required 0.426 µM.
Same read-out and setting: with `NS(=O)(=O)c1ccc(NC(=S)NNc2c3c(nc4ccccc24)CCCC3)cc1` the figure was 0.307 µM; with `C#CCOc1ccc(/C=N/Nc2c3c(nc4ccccc24)CCCC3)cc1`, 0.11 µM; with `Cl.O=C(O)c1ccc(-n2cc(COc3ccc(/C=N/Nc4c5c(nc6ccccc46)CCCC5)cc3)nn2)cc1`, 0.304 µM.
As to `C(=N\Nc1c2c(nc3ccccc13)CCCC2)/c1ccc(OCc2cn(Cc3ccccc3)nn2)cc1`, the IC50 turned out to be 0.0361 µM.
Still for that read-out and setting: the value for `COc1ccc(NC(=S)NNc2c3c(nc4ccccc24)CCCC3)cc1` was 0.568 µM; that for `Cl.Clc1ccc(-n2cc(COc3ccc(/C=N/Nc4c5c(nc6ccccc46)CCCC5)cc3)nn2)cc1` was 0.0678 µM; that for `O=[N+]([O-])c1ccc(-n2cc(COc3ccc(/C=N/Nc4c5c(nc6ccccc46)CCCC5)cc3)nn2)cc1` was 0.0256 µM.

Tested on in a further series: not listed separately
The series is described as follows: in vitro. Particulars: PAMPA, pH 7.4.
In the case of `NS(=O)(=O)c1cc2c(cc1Cl)N=CNS2(=O)=O` [CHLOROTHIAZIDE], the apparent permeability coefficient (Papp) (usually a coefficient for how fast a substance crosses the barrier) at 6 h, 50 µM was found to be 0.66 ×10⁻⁶ cm/s.
`CNC(=C[N+](=O)[O-])NCCSCc1ccc(CN(C)C)o1` [RANITIDINE] showed an apparent permeability (Papp) at 6 h, 50 µM of 0.04 ×10⁻⁶ cm/s.
`Cl.O=C(O)c1ccc(-n2cc(COc3ccc(/C=N/Nc4c5c(nc6ccccc46)CCCC5)cc3)nn2)cc1` registered an apparent permeability coefficient (Papp) at 6 h, 50 µM of 1.77 ×10⁻⁶ cm/s.
Same read-out and setting: with `Cl.Clc1ccc(-n2cc(COc3ccc(/C=N/Nc4c5c(nc6ccccc46)CCCC5)cc3)nn2)cc1` the figure was 6.07 ×10⁻⁶ cm/s.

These data come from ChEMBL document CHEMBL4339188, “Tackling neuroinflammation and cholinergic deficit in Alzheimer's disease: Multi-target inhibitors of cholinesterases, cyclooxygenase-2 and 15-lipoxygenase” (Eur J Med Chem, 2019).
